Results as given in patent publication US10774098B2, “Nahlsgen optical resolution method” (KYOTO UNIVERSITY, priority 2016, dated 2020).

Test system: normal human epidermal cells
Experiment: glutathione production promotion activity (glutathione reductase recycling assay)
Assay type: cell-based
Conditions: for GSH (pmol/μg protein) Mean: cultivation for 24 hours
From the text: The equal amount mixture obtained in Example 1 was used as a sample and evaluated for glutathione production promotion activity by the following procedure.
Specifically, normal human epidermal cells were inoculated to a 96-well microplate housing a normal human epidermic keratinocyte growth medium (trade name HuMedia KG2, supplied by Kurabo Industries Ltd.) in a cell density of 2.0×10^4 cells per 96 wells.
Twenty-four (24) hours after the inoculation, the medium was exchanged with a normal human epidermic keratinocyte growth medium (trade name HuMedia KB2, supplied by Kurabo Industries Ltd.) containing the sample in a predetermined concentration, and the cultivation was continued.
As a positive control, a cultivation was performed by a procedure similar to above, except for using, instead of the sample, Nahlsgen (DL-2-amino-4-[(RSp)-(3-carboxymethylphenoxy)(methoxy)phosphoryl]butanoic acid, trade name GGsTop, supplied by Wako Pure Chemical Industries, Ltd.).
As a blank, a cultivation was performed a procedure similar to above, except for not using the sample.
After cultivation for 24 hours, the cells were disrupted by ultrasonication using a phosphoric acid buffer containing 100-μM phenylmethylsulfonyl fluoride, and the total amount of glutathione was quantitatively measured by the after-mentioned glutathione reductase recycling assay.
Specifically, the disrupted cell suspension was combined with reduced nicotinamide adenine dinucleotide phosphate and glutathione reductase, followed by reaction at 37° C. for 10 minutes.
Next, 0.1 M phosphate buffer solution (containing 0.5 M EDTA, pH 7.5) containing 10 mM 5,5′-dithiobis(2-nitrobenzoic acid) was added, the absorbance (at 450 nm) was measured immediately after addition, and after 30 minute-incubation, and the difference between two measurements ((absorbance after 30 minute-incubation)−(absorbance immediately after addition)) was defined as an index for glutathione synthesis quantity.
The total amount of glutathione in the disrupted cell suspension was calculated on the basis of a calibration curve plotted using oxidized glutathione. The protein content in the disrupted cell suspension was quantitatively determined using the Pierce Microplate BCA Protein Assay Kit (Thermo SCIENTIFIC). The glutathione synthesis quantity was evaluated for differences from the untreated specimen (blank) and from the positive control by a significant difference test using Student's t-test.

COP(=O)(CC[C@H](N)C(=O)O)Oc1cccc(CC(=O)O)c1 (mixture of isomers) [Nahlsgen, DL-2-amino-4-[(RSp)-(3-carboxymethylphenoxy)(methoxy)phosphoryl]butanoic acid]
GSH (pmol/μg protein) Mean (Conc. 10.00 μmol/L): 44.7 pmol/μg protein

equal-amount mixture of D-2-amino-4-[(Rp)-(3-carboxymethylphenoxy)(methoxy)phosphoryl]butanoic acid monohydrate and L-2-amino-4-[(Sp)-(3-carboxymethylphenoxy)(methoxy)phosphoryl]butanoic acid monohydrate [Example 1]
GSH (pmol/μg protein) Mean (Conc. 2.00 μmol/L): 44.2 pmol/μg protein | GSH (pmol/μg protein) Mean (Conc. 10.00 μmol/L): 48.1 pmol/μg protein | GSH (pmol/μg protein) Mean (Conc. 50.00 μmol/L): 38.0 pmol/μg protein | GSH (pmol/μg protein) Mean (Conc. 250.00 μmol/L): 41.5 pmol/μg protein | glutathione (GSH) amount compared with the blank (untreated cells) (result in words, summary of Table 1): significantly increased glutathione (GSH) amount as well as or better than the cells treated with Nahlsgen
